Laboratory results as given in patent publication US8993752B2, “Neprilysin inhibitors” (Theravance Biopharma R&D IP, LLC, priority 2011, dated 2015).

target: T1, human NEP (Homo sapiens, UniProt P08473); test: In vitro enzyme inhibition assay at human NEP (fluorogenic peptide substrate); format: biochemical; details: recombinant human NEP; substrate Mca-D-Arg-Arg-Leu-Dap-(Dnp)-OH 10 μM; 37° C.; values given as ranges
T1 construct: purchased R&D Systems, Minneapolis, Minn; 1182-ZN
Outline: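 Recombinant human NEP pre-incubated 30 min at 37 °C with compound (10 μM to 20 pM), then 10 μM Mca-D-Arg-Arg-Leu-Dap-(Dnp)-OH in 50 mM HEPES pH 7.5, 100 mM NaCl, 0.01% Tween-20, 10 μM ZnSO4. Stopped after 20 min with acetic acid, fluorescence read at 320/405 nm; Ki from nonlinear fit, reported as pKi.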

T1 sequence (P08473 whole entry): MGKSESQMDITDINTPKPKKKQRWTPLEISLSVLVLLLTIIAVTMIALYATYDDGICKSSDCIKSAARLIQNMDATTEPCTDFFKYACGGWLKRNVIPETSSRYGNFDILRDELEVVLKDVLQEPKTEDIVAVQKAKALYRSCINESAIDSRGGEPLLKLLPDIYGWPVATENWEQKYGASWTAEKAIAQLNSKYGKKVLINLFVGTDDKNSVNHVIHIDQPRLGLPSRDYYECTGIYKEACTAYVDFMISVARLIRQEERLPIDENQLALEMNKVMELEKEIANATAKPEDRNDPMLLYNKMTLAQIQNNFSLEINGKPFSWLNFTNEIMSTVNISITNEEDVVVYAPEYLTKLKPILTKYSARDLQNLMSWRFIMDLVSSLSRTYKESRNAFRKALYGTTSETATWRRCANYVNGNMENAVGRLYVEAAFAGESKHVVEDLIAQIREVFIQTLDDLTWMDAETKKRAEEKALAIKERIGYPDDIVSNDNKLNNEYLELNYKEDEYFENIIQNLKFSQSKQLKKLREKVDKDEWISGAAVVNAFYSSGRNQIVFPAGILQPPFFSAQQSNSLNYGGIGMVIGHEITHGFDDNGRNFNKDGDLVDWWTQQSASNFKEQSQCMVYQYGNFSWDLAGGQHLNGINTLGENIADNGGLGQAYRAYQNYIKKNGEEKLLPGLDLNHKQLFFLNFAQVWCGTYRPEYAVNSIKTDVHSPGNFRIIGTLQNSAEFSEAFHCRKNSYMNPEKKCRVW

Structure (SMILES)	pKi values at human NEP
CN(C)C(=O)c1cc(C(=O)N[C@H](Cc2ccccc2Cl)[C@@H](O)C(=O)O)n[nH]1 [Example 2-54]	8.0-8.9
COCCN(C)C(=O)c1cc(C(=O)N[C@H](Cc2ccccc2C(F)(F)F)[C@@H](O)C(=O)O)n[nH]1 [Example 6-9]	7.0-7.9

same assay, conditions: recombinant human NEP; substrate Mca-D-Arg-Arg-Leu-Dap-(Dnp)-OH 10 μM; 37° C.; values given as ranges; read-out: pKi values at human NEP (converted)

Structure (SMILES)	Ki [nM]
O=C(N[C@H](Cc1ccccc1Cl)[C@@H](O)C(=O)O)c1cc(C(=O)O)n(Cc2ccc(Cl)cc2C(F)(F)F)n1 [Example 2-12, 5-[(1R,2R)-2-Carboxy-1-(2-chloro-benzyl)-2-hydroxy-ethylcarbamoyl]-2-(4-chloro-2-trifluoromethyl-benzyl)-2H-pyrazole-3-carboxylic acid]	12.6 to 100
CN(C)C(=O)c1cc(C(=O)N[C@H](Cc2ccccc2)[C@@H](O)C(=O)O)nn1Cc1ccc(Cl)cc1 [Example 8-17, (2R,3R)-3-{[1-(4-Chloro-benzyl)-5-dimethylcarbamoyl-1H-pyrazole-3-carbonyl]-amino}-2-hydroxy-4-phenyl-butyric acid]	12.6 to 100
O=C(N[C@H](Cc1ccccc1Cl)[C@@H](O)C(=O)O)c1cc(C(=O)N2CCOCC2)[nH]n1 [Example 2-55, (2R,3R)-4-(2-Chloro-phenyl)-2-hydroxy-3-{[5-(morpholine-4-carbonyl)-1H-pyrazole-3-carbonyl]-amino}-butyric acid]	12.6 to 100
O=C(N[C@H](Cc1ccccc1)[C@@H](O)C(=O)O)c1cc(C(=O)N2CCOCC2)n(Cc2ccc(Cl)cc2)n1 [Example 8-18, (2R,3R)-3-{[1-(4-Chloro-benzyl)-5-(morpholine-4-carbonyl)-1H-pyrazole-3-carbonyl]-amino}-2-hydroxy-4-phenyl-butyric acid]	12.6 to 100
COc1ccc(Cn2ccc(C(=O)N[C@H](Cc3ccccc3Cl)[C@@H](O)C(=O)O)n2)c(F)c1 [Example 2-66, (2R,3R)-4-(2-Chloro-phenyl)-3-{[1-(2-fluoro-4-methoxy-benzyl)-1H-pyrazole-3-carbonyl]-amino}-2-hydroxy-butyric acid]	1.26 to 10
O=C(O)C[C@@H](Cc1ccccc1Cl)NC(=O)c1cc(C(=O)O)n(Cc2ccccc2)n1 [Example 11-4, 2-Benzyl-5-[(R)-2-carboxy-1-(2-chloro-benzyl)-ethylcarbamoyl]-2H-pyrazole-3-carboxylic acid]	12.6 to 100
O=C(N[C@H](Cc1ccccc1Cl)[C@@H](O)C(=O)O)c1cc(-c2ccc(Cl)cc2Cl)n[nH]1 [Example 3-8, (2R,3R)-4-(2-Chloro-phenyl)-3-{[5-(2,4-dichloro-phenyl)-2H-pyrazole-3-carbonyl]-amino}-2-hydroxy-butyric acid]	1.26 to 10
CC(=O)c1cc(C(=O)N[C@H](Cc2ccccc2Cl)[C@@H](O)C(=O)O)[nH]n1 [Example 3-5, (2R,3R)-3-[(5-Acetyl-2H-pyrazole-3-carbonyl)-amino]-4-(2-chloro-phenyl)-2-hydroxy-butyric acid]	12.6 to 100
Cc1ccc(Cn2nc(C(=O)N[C@@H](CC(=O)O)Cc3ccccc3Cl)cc2C(=O)O)cc1 [Example 11-5, 5-[(R)-2-Carboxy-1-(2-chloro-benzyl)-ethylcarbamoyl]-2-(4-methyl-benzyl)-2H-pyrazole-3-carboxylic acid]	12.6 to 100
COc1ccc(Cn2nc(C(=O)N[C@H](Cc3ccccc3Cl)[C@@H](O)C(=O)O)cc2C(=O)O)cc1 [Example 2-21, 5-[(1R,2R)-2-Carboxy-1-(2-chloro-benzyl)-2-hydroxy-ethylcarbamoyl]-2-(4-methoxy-benzyl)-2H-pyrazole-3-carboxylic acid]	≤ 1
COc1ccc(Cn2nc(C(=O)N[C@H](Cc3ccccc3Cl)[C@@H](O)C(=O)O)cc2C(C)=O)cc1 [Example 2-70, (2R,3R)-3-{[5-Acetyl-1-(4-methoxy-benzyl)-1H-pyrazole-3-carbonyl]-amino}-4-(2-chloro-phenyl)-2-hydroxy-butyric acid]	1.26 to 10
O=C(N[C@H](Cc1ccccc1Cl)[C@@H](O)C(=O)O)c1cc(C(=O)O)n(Cc2c(F)cc(F)cc2F)n1 [Example 2-42, 5-[(1R,2R)-2-Carboxy-1-(2-chloro-benzyl)-2-hydroxy-ethylcarbamoyl]-2-(2,4,6-trifluoro-benzyl)-2H-pyrazole-3-carboxylic acid]	1.26 to 10
COc1c(F)c(F)c(Cn2nc(C(=O)N[C@H](Cc3ccccc3Cl)[C@@H](O)C(=O)O)cc2C(=O)O)c(F)c1F [Example 2-35, 5-[(1R,2R)-2-Carboxy-1-(2-chloro-benzyl)-2-hydroxy-ethylcarbamoyl]-2-(2,3,5,6-tetrafluoro-4-methoxy-benzyl)-2H-pyrazole-3-carboxylic acid]	≤ 1
CCOc1ncc(Cn2nc(C(=O)N[C@H](Cc3ccccc3Cl)[C@@H](O)C(=O)O)cc2C(=O)O)cn1 [Example 2-62, 5-[(1R,2R)-2-Carboxy-1-(2-chloro-benzyl)-2-hydroxy-ethylcarbamoyl]-2-(2-ethoxy-pyrimidin-5-ylmethyl)-2H-pyrazole-3-carboxylic acid]	≤ 1
O=C(O)C[C@@H](Cc1ccccc1Cl)NC(=O)c1cc(C(=O)O)[nH]n1 [Example 11-7, 5-[(R)-1-Carboxymethyl-2-(2-chloro-phenyl)-ethylcarbamoyl]-2H-pyrazole-3-carboxylic acid]	12.6 to 100
O=C(N[C@H](Cc1ccccc1Cl)[C@@H](O)C(=O)O)c1cc(-c2ccccc2C(F)(F)F)n[nH]1 [Example 3-2, (2R,3R)-4-(2-Chloro-phenyl)-2-hydroxy-3-{[5-(2-trifluoromethyl-phenyl)-2H-pyrazole-3-carbonyl]-amino}-butyric acid]	12.6 to 100
O=C(N[C@H](Cc1ccccc1C(F)(F)F)[C@@H](O)C(=O)O)c1cc(C(=O)N2CC[C@H](C(=O)O)C2)[nH]n1 [Example 6-11, (S)-1-{5-[(1R,2R)-2-Carboxy-2-hydroxy-1-(2-trifluoromethyl-benzyl)-ethylcarbamoyl]-2H-pyrazole-3-carbonyl}-pyrrolidine-3-carboxylic acid]	1.26 to 10
COc1ccc(Cn2nc(C(=O)N[C@@H](CC(=O)O)Cc3ccccc3Cl)cc2C(=O)O)cc1 [Example 11-2, 5-[(R)-2-Carboxy-1-(2-chloro-benzyl)-ethylcarbamoyl]-2-(4-methoxy-benzyl)-2H-pyrazole-3-carboxylic acid]	12.6 to 100
COc1ccc(Cn2nc(C(=O)N[C@H](Cc3ccccc3Cl)[C@@H](O)C(=O)O)cc2C(=O)O)cc1F [Example 2-37, 5-[(1R,2R)-2-Carboxy-1-(2-chloro-benzyl)-2-hydroxy-ethylcarbamoyl]-2-(3-fluoro-4-methoxy-benzyl)-2H-pyrazole-3-carboxylic acid]	1.26 to 10
CC(c1ccccc1)n1nc(C(=O)N[C@H](Cc2ccccc2Cl)[C@@H](O)C(=O)O)cc1C(=O)O (stereo partly drawn) [Example 2-60, 5-[(1R,2R)-2-Carboxy-1-(2-chloro-benzyl)-2-hydroxy-ethylcarbamoyl]-2-(1-phenyl-ethyl)-2H-pyrazole-3-carboxylic acid]	12.6 to 100
O=C(N[C@H](Cc1ccccc1Cl)[C@@H](O)C(=O)O)c1cc(C(=O)O)n(Cc2ccc(C(F)(F)F)cc2)n1 [Example 2-25, 5-[(1R,2R)-2-Carboxy-1-(2-chloro-benzyl)-2-hydroxy-ethylcarbamoyl]-2-(4-trifluoromethyl-benzyl)-2H-pyrazole-3-carboxylic acid]	1.26 to 10
